Measured values published in US20200230068A1, “COMPOSITIONS AND METHODS OF DELIVERY OF PHARMACOLOGICAL AGENTS” (NAL PHARMACEUTICAL GROUP LIMITED, priority 2017, published 2020).

Experiments:
in vitro = settings: Chinese hamster; for cytotoxicity at 20 minutes, 0.01 µM: Cytotoxicity %
Protocol: Conjugated Complex has been tested in CHO cells expressing human recombinant sst2a. Cell viability was measured using the CellTiter-Glo® Luminescent Cell Viability Assay (Promega) that determines the number of viable cells in culture, based on quantitation of the ATP present that is an indicator of metabolically active cells.
After dispensing test compounds to the wells, cells in the incubation buffer were added to the wells and incubated for 20 minutes. At the end of incubation, CellTiter-Glo was added to each well to measure luminescence.

[1] = Stability in rat plasma in vitro; format: in vitro ADME
Protocol: SST-Albumin fusion proteins may have a longer serum half-life and/or more stabilized activity in solution or in a pharmaceutical composition in vitro and/or in vivo compared to the corresponding unfused SST molecules. In rat plasma, for example, more than 90% of SST fusion protein was detected until 40 minutes of incubation, and more than 70% of SST fusion proteins remained up to at least 180 min. Under the same conditions, less than about 50% of free SST remained after 40 minute incubation, and no free SST was detected beyond 120 minutes. […] Thus, it would take about 72 hours for the concentration of SST fusion protein to reach zero concentration in plasma.
The stability of free SST and SST fusion protein was compared in in vitro rat plasma.

[2] = biological target: sst2a receptor expressed on CHO-K1 cells (UniProt P30874); test: cell-based or functional assay
Sequence of UniProt P30874 (P30874 whole entry): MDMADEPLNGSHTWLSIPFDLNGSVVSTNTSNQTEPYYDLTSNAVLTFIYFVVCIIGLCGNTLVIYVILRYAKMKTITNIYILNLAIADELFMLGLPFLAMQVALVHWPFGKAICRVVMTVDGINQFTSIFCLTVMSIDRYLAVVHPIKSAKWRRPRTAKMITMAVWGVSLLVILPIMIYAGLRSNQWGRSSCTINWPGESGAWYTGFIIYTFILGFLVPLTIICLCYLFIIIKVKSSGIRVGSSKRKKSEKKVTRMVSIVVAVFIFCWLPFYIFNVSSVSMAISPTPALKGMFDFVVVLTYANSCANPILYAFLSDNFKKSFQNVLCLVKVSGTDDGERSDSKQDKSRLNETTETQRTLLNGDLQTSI

[3] = cited from earlier work

## C[C@@H]1CC[C@@]2(OC1)O[C@H]1[C@@H](O)[C@H]3[C@@H]4CC[C@H]5C[C@@H](O[C@@H]6O[C@H](CO)[C@H](O[C@@H]7O[C@H](CO)[C@@H](O)[C@H](O[C@@H]8OC[C@@H](O)[C@H](O)[C@H]8O)[C@H]7O[C@@H]7O[C@H](CO)[C@H](O)[C@H](O[C@@H]8O[C@H](CO)[C@@H](O)[C@H](O)[C@H]8O)[C@H]7O)[C@H](O)[C@H]6O)[C@H](O)C[C@]5(C)[C@H]4CC[C@]3(C)[C@H]1[C@@H]2C [Digitonin]
In vitro
  cytotoxicity at 20 min, 20 mg/ml: 100%

## C[C@@H](O)[C@@H]1NC(=O)[C@H](CCCCN)NC(=O)[C@@H](Cc2c[nH]c3ccccc23)NC(=O)[C@H](Cc2ccccc2)NC(=O)[C@@H](NC(=O)[C@H](N)Cc2ccccc2)CSSC[C@@H](C(=O)N[C@H](CO)[C@@H](C)O)NC1=O [Octreotide]
In vitro; Test 2, 10 nM
  cytotoxicity at 20 minutes, 0.01 µM: 8%
In vitro; test 1, 10 nM
  cytotoxicity at 20 minutes, 0.01 µM: -4%

## C[C@H](N)C(=O)NCC(=O)N[C@H]1CSSC[C@@H](C(=O)O)NC(=O)[C@H](CO)NC(=O)[C@H]([C@@H](C)O)NC(=O)[C@H](Cc2ccccc2)NC(=O)[C@H]([C@@H](C)O)NC(=O)[C@H](CCCCN)NC(=O)[C@H](Cc2c[nH]c3ccccc23)NC(=O)[C@H](Cc2ccccc2)NC(=O)[C@H](Cc2ccccc2)NC(=O)[C@H](CC(N)=O)NC(=O)[C@H](CCCCN)NC1=O [free SST, somatostatin]
[1]; rat plasma incubation
  time up to which detected in rat plasma (not detected beyond): ≤ 120 min
[1]; rat plasma, 40 minutes of incubation, read-out: fraction detected/remaining in rat plasma
  remaining at 40 min: < 50%

## Octreotide (peptide)
[2]
  EC50 (adenylyl cyclase assay, CHO-K1 cells expressing sst2a receptor): 0.039 nM

## insulin-like growth factor-I [IGF-1]
[3]
  half-life: 10 to 20 min
